The record followed here is PMC12508057, “Discovery of ETI41 and ETI60: novel selective endosomal Toll-like receptor inhibitors for the treatment of autoimmune diseases” (Experimental & Molecular Medicine, 2025).

Experiment [1] addresses T1, hTLR7 (Homo sapiens, UniProt Q9NYK1).
T1 construct: human B lymphoblasts (Daudi cells); endogenous in cells; host or cells: Daudi
Nature of the experiment: TLR7 inhibition, R848-induced hTNFα in Daudi. In kind it is cell-based. The protocol:
(§1) RAW 264.7 and differentiated THP-1 cells were seeded into 96-well plates at 2 × 10^4 cells per well, while Daudi cells were seeded at 5 × 10^4 cells per well. After stabilization for 30 min, cells were stimulated with specific TLR agonists for 4 or 24 h. Supernatants were diluted and transferred to precoated ELISA plates to measure TNF-α secretion using kits from Invitrogen. Optical absorbance was measured using a BioTek Synergy HTX multimode microplate reader, and data were interpolated using BioTek Gen5 software.
(§2) One-tailed paired Student’s t-tests were performed using Microsoft Excel (Microsoft). Semi-logarithmic conversions and nonregression curve analyses for calculating 50% lethal concentration (LC50) and 50% inhibitory concentration (IC50) values were conducted using GraphPad Prism 7.0 (GraphPad). The therapeutic index was calculated as […]. Animal experimental results are expressed as mean ± standard deviation and analyzed using SPSS v.20 (IBM SPSS Statistics). Homogeneity of variance was assessed using Levene’s test.
[…] Data are from at least three independent experiments (n = 3) and statistical differences between the induced case and other cases were analyzed and verified using a one-tailed Student’s t-test (*P < 0.05, **P < 0.01, ***P < 0.001).

Experiment [2] addresses T2, TLR9 (Mus musculus, UniProt Q9EQU3).
T2 construct: endogenous in cells; host or cells: RAW 264.7
T2 sequence (Q9EQU3 26-1032): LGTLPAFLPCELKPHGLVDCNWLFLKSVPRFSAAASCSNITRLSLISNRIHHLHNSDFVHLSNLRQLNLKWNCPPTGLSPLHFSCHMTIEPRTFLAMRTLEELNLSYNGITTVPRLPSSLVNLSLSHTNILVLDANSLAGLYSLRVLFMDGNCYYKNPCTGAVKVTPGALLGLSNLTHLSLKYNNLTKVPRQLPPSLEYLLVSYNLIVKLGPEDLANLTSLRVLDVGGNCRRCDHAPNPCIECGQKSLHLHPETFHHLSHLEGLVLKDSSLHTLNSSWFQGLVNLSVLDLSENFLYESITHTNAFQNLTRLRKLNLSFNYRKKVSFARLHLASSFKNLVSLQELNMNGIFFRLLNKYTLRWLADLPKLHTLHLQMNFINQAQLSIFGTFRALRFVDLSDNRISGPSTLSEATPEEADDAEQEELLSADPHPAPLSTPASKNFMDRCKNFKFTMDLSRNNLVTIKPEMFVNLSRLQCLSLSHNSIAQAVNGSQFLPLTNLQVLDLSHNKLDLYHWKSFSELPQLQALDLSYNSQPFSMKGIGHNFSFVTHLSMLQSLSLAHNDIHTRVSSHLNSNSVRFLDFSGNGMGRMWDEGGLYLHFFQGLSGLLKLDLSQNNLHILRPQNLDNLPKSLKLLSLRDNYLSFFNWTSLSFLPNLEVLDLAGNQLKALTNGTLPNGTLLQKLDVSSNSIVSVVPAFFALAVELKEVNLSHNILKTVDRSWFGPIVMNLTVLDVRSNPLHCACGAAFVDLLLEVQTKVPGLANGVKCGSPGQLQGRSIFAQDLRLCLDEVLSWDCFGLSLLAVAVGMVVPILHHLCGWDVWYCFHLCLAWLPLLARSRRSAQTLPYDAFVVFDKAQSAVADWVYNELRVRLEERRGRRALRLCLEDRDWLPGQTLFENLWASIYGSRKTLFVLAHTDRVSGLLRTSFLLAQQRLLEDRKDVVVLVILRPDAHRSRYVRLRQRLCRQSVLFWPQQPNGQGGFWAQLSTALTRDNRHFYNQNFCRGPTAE
Nature of the experiment: TLR9 inhibition, TNF-α secretion (ELISA) in RAW 264.7. The experiment is classed as cell-based. To be noted: for TLR9 TI value: therapeutic index, RAW 264.7. The protocol:
as §1, §2
The cells were activated with agonistic ligands: […], TLR3 (poly I:C, 2 μg/ml, 24 h), TLR4 (LPS, 10 or 100 ng/ml, 4 h), TLR5 (FLA-ST, 500 ng/ml, 4 h), TLR7 (ORN06/LyoVec, 2 μg/ml, 24 h; and IMQ, 1 μg/ml, 4 h), TLR8 (TL8-506, 2 μg/ml, 24 h) and TLR9 (ODN2395, 1 μM, 4 h) at various concentrations in RAW 264.7 cells, human Daudi cells and THP-1 cells. Data are from at least three independent experiments (n = 3) and statistical differences between the induced case and other cases were analyzed and verified using a one-tailed Student’s t-test (*P < 0.05, **P < 0.01, ***P < 0.001).

Like-named read-outs stand apart in the source and are kept apart here.

T1 sequence (Q9NYK1 27-1049): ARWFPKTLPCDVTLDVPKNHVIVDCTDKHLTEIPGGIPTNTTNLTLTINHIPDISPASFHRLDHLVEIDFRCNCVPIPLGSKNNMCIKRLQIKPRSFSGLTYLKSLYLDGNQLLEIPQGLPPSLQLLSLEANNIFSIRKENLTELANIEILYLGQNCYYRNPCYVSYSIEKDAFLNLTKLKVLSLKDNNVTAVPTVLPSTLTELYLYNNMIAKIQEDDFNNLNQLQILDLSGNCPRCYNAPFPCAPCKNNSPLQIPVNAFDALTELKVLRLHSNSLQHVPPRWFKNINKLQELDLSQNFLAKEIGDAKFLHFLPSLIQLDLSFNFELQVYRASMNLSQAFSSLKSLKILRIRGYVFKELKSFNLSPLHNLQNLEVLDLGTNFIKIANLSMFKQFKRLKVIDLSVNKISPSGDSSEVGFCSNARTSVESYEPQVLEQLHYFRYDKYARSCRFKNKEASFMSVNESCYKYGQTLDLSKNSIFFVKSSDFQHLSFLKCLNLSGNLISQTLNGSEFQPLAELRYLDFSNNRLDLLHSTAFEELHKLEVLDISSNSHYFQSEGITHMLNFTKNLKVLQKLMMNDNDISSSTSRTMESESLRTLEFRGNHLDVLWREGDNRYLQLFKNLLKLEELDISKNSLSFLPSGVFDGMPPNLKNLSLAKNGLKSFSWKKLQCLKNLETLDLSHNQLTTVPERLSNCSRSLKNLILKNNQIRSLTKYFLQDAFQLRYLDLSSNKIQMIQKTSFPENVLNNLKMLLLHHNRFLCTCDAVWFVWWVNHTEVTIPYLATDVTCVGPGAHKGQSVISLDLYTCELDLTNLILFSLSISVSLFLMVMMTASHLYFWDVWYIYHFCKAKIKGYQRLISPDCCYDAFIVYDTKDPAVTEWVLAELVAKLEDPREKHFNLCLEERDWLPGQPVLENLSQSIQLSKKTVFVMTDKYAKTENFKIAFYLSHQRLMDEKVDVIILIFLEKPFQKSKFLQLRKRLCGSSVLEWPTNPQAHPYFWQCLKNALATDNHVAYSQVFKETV

As for `Cc1cc2c(N)c3c(nc2n1CCCN(C)C)CCCCCC3` [ETI41], the IC50 (as a rule, the concentration at which inhibition is half-maximal) in experiment [1] came out at 947 nM. In experiment [2], the IC50 was 160 nM and the “TLR9 TI value” is reported as 419.88.

Regarding `COc1ccc2c3c(N)c4c(nc3n(CCCN(C)C)c2c1)CCCC4` [ETI60], the 50% inhibitory concentration (IC50) in experiment [1] stood at 668 nM; in experiment [2] (RAW 264.7 cell line, read-out: TLR9 IC50 (mTNFα)), 120 nM. In addition, the “TLR9 TI value” in experiment [2] is recorded as 422.71.
